Experimental findings from PubChem BioAssay (NCI) are described below.

Structures are written as SMILES.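 Exposure lasted 48 hours, with cells grown in 96-well plates and compounds tested at five concentrations. GI50 is the concentration that inhibits growth by half. Definition used: TGI = concentration required for complete inhibition of growth.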

Test systems include CAKI-1 renal; HCT-116 colon; UACC-257 melanoma; NCI-H226 lung; LOX IMVI melanoma; SK-MEL-2 melanoma; SK-MEL-5 melanoma; TK-10 renal; HT29 colon; MALME-3M melanoma.
Holding throughout (experiment): growth of human tumour cells (NCI), 48 h

`CCOc1ccc(Nc2nc(-c3c(C)nc4ncccn34)cs2)cc1`: the GI50 was 0.0144 µM with CAKI-1 renal; 0.0221 µM in the experiment on HCT-116 colon; 6.77 µM with UACC-257 melanoma; 2.81 µM in the experiment on NCI-H226 lung; 0.0382 µM in the experiment with LOX IMVI melanoma; 0.0389 µM with SK-MEL-2 melanoma. Also, the results for the GI50 in the experiment with SK-MEL-5 melanoma and in the experiment with TK-10 renal were 0.0453 µM and 12.8 µM, respectively. In addition, the TGI with CAKI-1 renal was determined as 15.8 µM; in the experiment with HCT-116 colon, 11.6 µM; in the experiment with UACC-257 melanoma, 21.3 µM; in the experiment on NCI-H226 lung, 22.6 µM; in the experiment on LOX IMVI melanoma, 17.2 µM; in the experiment with SK-MEL-2 melanoma, 21.7 µM. Also, the results for the TGI in the experiment with SK-MEL-5 melanoma and in the experiment on TK-10 renal were 1.96 µM and 43 µM, respectively.

For `O=C1CCS/C(=N/S(=O)(=O)c2ccc(N3N=C4c5ccccc5CC4C3c3cccs3)cc2)N1Cc1ccccc1` (stereo unspecified), the GI50 in the experiment on CAKI-1 renal is 24 µM; in the experiment on HCT-116 colon, 20.3 µM; in the experiment on UACC-257 melanoma, 24.2 µM; in the experiment with HT29 colon, 37 µM; in the experiment on NCI-H226 lung, 26.5 µM; in the experiment with LOX IMVI melanoma, 13.6 µM. Also, the values for the GI50 with SK-MEL-2 melanoma, in the experiment on SK-MEL-5 melanoma and in the experiment on TK-10 renal were 28 µM, 14.1 µM and 17.7 µM, respectively. In addition, the TGI with CAKI-1 renal was 54.3 µM; with HCT-116 colon, 34.5 µM; in the experiment on UACC-257 melanoma, 50.7 µM; with HT29 colon it was greater than 100 µM; with NCI-H226 lung, 59.3 µM; in the experiment with LOX IMVI melanoma, 27.2 µM. Moreover, the TGI in the experiment with SK-MEL-2 melanoma is greater than 100 µM; with SK-MEL-5 melanoma it was 28.8 µM; in the experiment with TK-10 renal it was 37.6 µM.

For the molecule `NC(N)=N/N=C/c1c(-c2ccncc2)nc2sc(Cl)cn12`, the GI50 in the experiment on CAKI-1 renal is 18.1 µM; in the experiment on HCT-116 colon, 2.55 µM; with UACC-257 melanoma, 21.5 µM; with HT29 colon it was 17.1 µM; with NCI-H226 lung, 3.98 µM; in the experiment with LOX IMVI melanoma, 3.03 µM. Also, the figures for the GI50 with SK-MEL-2 melanoma, in the experiment with SK-MEL-5 melanoma and in the experiment with TK-10 renal were 11.8 µM, 18.1 µM and 5.26 µM, respectively. For the same molecule, the TGI was 34.7 µM in the experiment with CAKI-1 renal; 6.22 µM with HCT-116 colon; 40.6 µM in the experiment with UACC-257 melanoma; greater than 51.3 µM in the experiment with HT29 colon; 15.2 µM in the experiment on NCI-H226 lung; 9.55 µM with LOX IMVI melanoma. The TGI in the experiment on SK-MEL-2 melanoma was greater than 33.7 µM; in the experiment on SK-MEL-5 melanoma, 36.2 µM; with TK-10 renal, 10.9 µM.

Take `NC(N)=N/N=C/c1c(-c2ccc(Cl)c([N+](=O)[O-])c2)nc2sc3ccccc3n12`: the GI50 in the experiment on CAKI-1 renal was 1.66 µM; in the experiment on HCT-116 colon it was 0.02 µM; in the experiment with UACC-257 melanoma, 8.38 µM; in the experiment with HT29 colon it was 1.93 µM; in the experiment with NCI-H226 lung it was 1.79 µM; in the experiment on LOX IMVI melanoma, 0.0923 µM. Moreover, the GI50 is 26.8 µM in the experiment with SK-MEL-2 melanoma, 0.952 µM in the experiment with SK-MEL-5 melanoma and 0.95 µM in the experiment with TK-10 renal. Besides, the TGI in the experiment on CAKI-1 renal is 8.49 µM; in the experiment with HCT-116 colon, 8.97 µM; in the experiment with UACC-257 melanoma, 18 µM; in the experiment with HT29 colon, greater than 50 µM; in the experiment with NCI-H226 lung, 11.1 µM; in the experiment with LOX IMVI melanoma it was 0.17 µM. Besides, the TGI in the experiment on SK-MEL-2 melanoma is greater than 50 µM; in the experiment on SK-MEL-5 melanoma, 1.95 µM; in the experiment on TK-10 renal it was 1.91 µM.

`O=C(O)Cn1ccc(=O)c2cc([N+](=O)[O-])ccc21`: the TGI with CAKI-1 renal, in the experiment with HCT-116 colon, in the experiment with UACC-257 melanoma, with HT29 colon, in the experiment with NCI-H226 lung and with SK-MEL-2 melanoma was greater than 100 µM throughout. For the same molecule, the TGI in the experiment on MALME-3M melanoma, in the experiment on SK-MEL-5 melanoma and with TK-10 renal was greater than 100 µM in each case.

`Cc1nc(-n2nc(-c3ccccc3)cc2-c2ccccc2)sc1C(=O)/C=C/c1ccccc1`: the TGI in the experiment with CAKI-1 renal, in the experiment on UACC-257 melanoma, in the experiment on HT29 colon, in the experiment with LOX IMVI melanoma, in the experiment on SK-MEL-2 melanoma and with MALME-3M melanoma was greater than 100 µM in each case. Moreover, the TGI in the experiment on SK-MEL-5 melanoma and with TK-10 renal was greater than 100 µM throughout.

On to `COc1cc2cc3c(c(O)c2c(O)c1-c1c(OC)cc2cc4c(c(O)c2c1O)C(=O)O[C@H](C)C4)C(=O)O[C@H](C)C3`, for which the GI50 with CAKI-1 renal was 23.9 µM; in the experiment on HCT-116 colon, 20.3 µM; in the experiment on UACC-257 melanoma, 22.9 µM; with HT29 colon, 37.5 µM; in the experiment on NCI-H226 lung, 32.7 µM; in the experiment on LOX IMVI melanoma, 18 µM. The figures for the GI50 in the experiment on SK-MEL-2 melanoma, in the experiment on SK-MEL-5 melanoma and in the experiment with TK-10 renal were 50.7 µM, 21.8 µM and 60.3 µM, respectively. For the same molecule, the TGI in the experiment on CAKI-1 renal was 61.2 µM; with HCT-116 colon, 43 µM; with UACC-257 melanoma, 48.8 µM; with HT29 colon, greater than 100 µM; in the experiment on NCI-H226 lung, greater than 100 µM; with LOX IMVI melanoma it was 44.6 µM. In addition, the results for the TGI in the experiment on SK-MEL-2 melanoma, in the experiment with SK-MEL-5 melanoma and in the experiment on TK-10 renal were greater than 100 µM, 39.1 µM and greater than 100 µM, respectively.

Take `O=C1CNN=C(Cn2nc(-c3ccccc3)c3ccccc3c2=O)N1`: the TGI with HCT-116 colon, in the experiment with UACC-257 melanoma, in the experiment with HT29 colon, in the experiment on NCI-H226 lung, in the experiment with SK-MEL-2 melanoma and in the experiment with MALME-3M melanoma was greater than 100 µM in each case. The TGI with SK-MEL-5 melanoma and in the experiment with TK-10 renal was greater than 100 µM each time.

Regarding `c1cncc(C2ONC3=NCCN32)c1` (stereo unspecified), the GI50 with CAKI-1 renal is 8.92 µM; in the experiment on HCT-116 colon, 34.6 µM; with UACC-257 melanoma, greater than 100 µM; in the experiment with HT29 colon, 35.1 µM; in the experiment on NCI-H226 lung, 20 µM; in the experiment with SK-MEL-2 melanoma, 68.8 µM. Also, the values for the GI50 in the experiment on MALME-3M melanoma, with SK-MEL-5 melanoma and with TK-10 renal were 5.17 µM, 23.6 µM and 10.9 µM, respectively. In addition, the TGI was 42.2 µM with CAKI-1 renal; greater than 100 µM with HCT-116 colon; greater than 100 µM in the experiment with UACC-257 melanoma; greater than 100 µM in the experiment with HT29 colon; 68.7 µM in the experiment with NCI-H226 lung; greater than 100 µM in the experiment with SK-MEL-2 melanoma. Moreover, the TGI was 91.4 µM in the experiment on MALME-3M melanoma, greater than 100 µM in the experiment with SK-MEL-5 melanoma and 70.6 µM in the experiment on TK-10 renal.
